Experimental data published in patent US8791107B2, “N-substituted oxazinopteridines and oxazinopteridinones” (Takeda Pharmaceutical Company Limited, priority 2011, dated 2014).

target: T1, PI3Kδ (Homo sapiens, UniProt O00329); test: PI3Kδ inhibition, modified PIK3CD Adapta TR-FRET assay; assay type: biochemical; settings: recombinant GST-tagged full length PIK3CD co-expressed with PIK3R1 (p85α); 2 μM ATP, 50 μM PIP2; read-out: PI3Kδ Inhibition (pIC50) (converted)
T1 construct: The protein is full length and co-expressed with untagged PIK3R1; GST; purchased Invitrogen PV5274
Outline: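 Inhibition was derived from % conversion against positive and negative controls, with ADP read by Adapta Eu-antibody/tracer TR-FRET. Room-temperature reactions used GST-PIK3CD/p85α in HEPES pH 7.5 buffer (MgCl2, EGTA, NaCl, CHAPS, fresh DTT), 1% DMSO final and 12 concentrations. They were initiated by adding 2 μM ATP/50 μM PIP2 solution.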

T1 sequence (O00329 whole entry): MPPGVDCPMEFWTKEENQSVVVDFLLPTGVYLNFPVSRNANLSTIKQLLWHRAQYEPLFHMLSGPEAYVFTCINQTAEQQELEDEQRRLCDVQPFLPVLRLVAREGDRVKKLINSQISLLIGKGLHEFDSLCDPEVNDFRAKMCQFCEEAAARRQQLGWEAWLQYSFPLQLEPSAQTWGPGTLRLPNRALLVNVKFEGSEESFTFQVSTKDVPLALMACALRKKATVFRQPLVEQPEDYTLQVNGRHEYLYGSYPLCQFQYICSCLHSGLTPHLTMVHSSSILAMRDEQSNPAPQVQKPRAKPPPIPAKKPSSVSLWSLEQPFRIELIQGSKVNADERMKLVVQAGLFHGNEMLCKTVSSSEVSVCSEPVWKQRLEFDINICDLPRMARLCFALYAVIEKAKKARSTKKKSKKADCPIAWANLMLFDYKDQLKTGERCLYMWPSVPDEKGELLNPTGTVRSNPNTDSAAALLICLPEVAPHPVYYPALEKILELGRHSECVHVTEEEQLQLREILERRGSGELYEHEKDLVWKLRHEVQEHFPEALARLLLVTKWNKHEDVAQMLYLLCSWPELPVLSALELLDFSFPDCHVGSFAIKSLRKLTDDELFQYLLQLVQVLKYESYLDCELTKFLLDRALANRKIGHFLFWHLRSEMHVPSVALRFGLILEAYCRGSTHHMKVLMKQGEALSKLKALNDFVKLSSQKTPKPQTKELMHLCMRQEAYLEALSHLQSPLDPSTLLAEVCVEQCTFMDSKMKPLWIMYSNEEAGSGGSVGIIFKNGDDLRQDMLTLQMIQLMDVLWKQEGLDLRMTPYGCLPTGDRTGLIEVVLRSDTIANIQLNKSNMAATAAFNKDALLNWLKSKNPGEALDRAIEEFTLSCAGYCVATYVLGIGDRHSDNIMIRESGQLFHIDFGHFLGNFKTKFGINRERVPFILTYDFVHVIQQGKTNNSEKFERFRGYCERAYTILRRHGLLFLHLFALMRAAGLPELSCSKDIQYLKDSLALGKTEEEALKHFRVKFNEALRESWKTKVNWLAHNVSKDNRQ
T1 sequence (P27986 whole entry partner): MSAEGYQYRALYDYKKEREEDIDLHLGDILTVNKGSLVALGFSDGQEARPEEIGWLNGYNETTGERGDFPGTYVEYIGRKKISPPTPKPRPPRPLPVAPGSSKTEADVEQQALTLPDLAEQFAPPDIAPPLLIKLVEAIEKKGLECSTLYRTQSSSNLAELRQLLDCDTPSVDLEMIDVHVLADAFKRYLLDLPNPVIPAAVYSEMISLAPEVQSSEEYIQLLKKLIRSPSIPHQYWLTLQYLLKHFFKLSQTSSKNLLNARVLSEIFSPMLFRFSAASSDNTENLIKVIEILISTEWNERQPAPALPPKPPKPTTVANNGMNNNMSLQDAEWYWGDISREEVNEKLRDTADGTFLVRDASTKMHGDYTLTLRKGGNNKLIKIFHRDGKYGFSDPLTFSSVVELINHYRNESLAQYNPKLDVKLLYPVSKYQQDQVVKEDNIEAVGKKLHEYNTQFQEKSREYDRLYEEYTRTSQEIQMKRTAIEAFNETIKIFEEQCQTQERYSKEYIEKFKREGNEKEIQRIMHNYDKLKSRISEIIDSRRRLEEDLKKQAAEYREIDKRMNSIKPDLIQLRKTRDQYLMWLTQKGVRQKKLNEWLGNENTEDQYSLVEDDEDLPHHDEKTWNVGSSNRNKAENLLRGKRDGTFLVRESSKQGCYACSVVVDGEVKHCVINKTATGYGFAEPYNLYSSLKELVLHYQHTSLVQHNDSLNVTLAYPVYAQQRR

Structure (SMILES) | IC50
COC(=O)c1ccc(C)cc1CN1C[C@@H]2COCCN2c2nc(-c3cccc4[nH]ccc34)ncc21 [Example 165, (R)-methyl 2-((2-(1H-indol-4-yl)-6a,7,9,10-tetrahydro-[1,4]oxazino[3,4-h]pteridin-5(6H)-yl)methyl)-4-methylbenzoate] | 794 nM
Cc1ccc(CO)c(CN2C[C@@H]3COCCN3c3nc(-c4cccc5[nH]ccc45)ncc32)c1 [Example 166, (R)-(2-((2-(1H-indol-4-yl)-6a,7,9,10-tetrahydro-[1,4]oxazino[3,4-h]pteridin-5(6H)-yl)methyl)-4-methylphenyl)methanol] | 63.1 nM
CCc1nnc(CN2C[C@@H]3COCCN3c3nc(-c4cncc5[nH]ccc45)ncc32)o1 [Example 167, (R)-5-((5-ethyl-1,3,4-oxadiazol-2-yl)methyl)-2-(1H-pyrrolo[2,3-c]pyridin-4-yl)-5,6,6a,7,9,10-hexahydro-[1,4]oxazino[3,4-h]pteridine] | 1000 nM
CCc1nnc(CN2C[C@@H]3COCCN3c3nc(-c4ccc(O)nc4)ncc32)o1 [Example 168, (R)-5-(5-((5-ethyl-1,3,4-oxadiazol-2-yl)methyl)-5,6,6a,7,9,10-hexahydro-[1,4]oxazino[3,4-h]pteridin-2-yl)pyridin-2-ol] | > 10000 nM
CC(C)(O)CCN1C[C@@H]2COCCN2c2nc(-c3cccc4[nH]ccc34)ncc21 [Example 169, (R)-4-(2-(1H-indol-4-yl)-6a,7,9,10-tetrahydro-[1,4]oxazino[3,4-h]pteridin-5(6H)-yl)-2-methylbutan-2-ol] | 7.94 nM
CC(C)(O)CCN1C[C@@H]2COCCN2c2nc(-c3cncc4[nH]ccc34)ncc21 [Example 170, (R)-4-(2-(1H-pyrrolo[2,3-c]pyridin-4-yl)-6a,7,9,10-tetrahydro-[1,4]oxazino[3,4-h]pteridin-5(6H)-yl)-2-methylbutan-2-ol] | 6.31 nM
CC(C)(O)CCN1C[C@@H]2COCCN2c2nc(-c3cccc(CO)c3)ncc21 [Example 171, (R)-4-(2-(3-(hydroxymethyl)phenyl)-6a,7,9,10-tetrahydro-[1,4]oxazino[3,4-h]pteridin-5(6H)-yl)-2-methylbutan-2-ol] | 3.16 nM
CCc1nnc(CN2C[C@@H]3COCCN3c3nc(-c4cccc(CO)c4)ncc32)o1 [Example 172, (R)-(3-(5-((5-ethyl-1,3,4-oxadiazol-2-yl)methyl)-5,6,6a,7,9,10-hexahydro-[1,4]oxazino[3,4-h]pteridin-2-yl)phenyl)methanol] | 5.01 nM
OCCN1C[C@@H]2COCCN2c2nc(-c3cccc4[nH]ccc34)ncc21 [Example 173, (R)-2-(2-(1H-indol-4-yl)-6a,7,9,10-tetrahydro-[1,4]oxazino[3,4-h]pteridin-5(6H)-yl)ethanol] | 158 nM
O=C(CN1C[C@@H]2COCCN2c2nc(-c3cncc4[nH]ccc34)ncc21)NCC1CCOCC1 [Example 174, (R)-2-(2-(1H-pyrrolo[2,3-c]pyridin-4-yl)-6a,7,9,10-tetrahydro-[1,4]oxazino[3,4-h]pteridin-5(6H)-yl)-N-((tetrahydro-2H-pyran-4-yl)methyl)acetamide] | 7.94 nM
CC(C)Cc1nnc(C(C)N2C[C@@H]3COCCN3c3nc(-c4cccc5[nH]ccc45)ncc32)o1 (stereo partly drawn) [Example 175, (6aR)-2-(1H-indol-4-yl)-5-(1-(5-isobutyl-1,3,4-oxadiazol-2-yl)ethyl)-5,6,6a,7,9,10-hexahydro-[1,4]oxazino[3,4-h]pteridine] | 1.58 nM
CC(C)Cc1nnc(C(C)N2C[C@@H]3COCCN3c3nc(-c4cccc(CO)c4)ncc32)o1 (stereo partly shown) [Example 176] | 1.58 nM
CCc1nnc(C(C)N2C[C@@H]3COCCN3c3nc(-c4cccc(CO)c4)ncc32)o1 (stereo partly drawn) [Example 177, (3-((6aR)-5-(1-(5-ethyl-1,3,4-oxadiazol-2-yl)ethyl)-5,6,6a,7,9,10-hexahydro-[1,4]oxazino[3,4-h]pteridin-2-yl)phenyl)methanol] | 2 nM
CCc1nnc(C(C)N2C[C@@H]3COCCN3c3nc(-c4cccc5[nH]ccc45)ncc32)o1 (stereo partly drawn) [Example 178, (6aR)-5-(1-(5-ethyl-1,3,4-oxadiazol-2-yl)ethyl)-2-(1H-indol-4-yl)-5,6,6a,7,9,10-hexahydro-[1,4]oxazino[3,4-h]pteridine] | 1.58 nM
CCc1nnc(CN2C[C@@H]3COCCN3c3nc(-c4cc(CO)ccc4F)ncc32)o1 [Example 179, (R)-(3-(5-((5-ethyl-1,3,4-oxadiazol-2-yl)methyl)-5,6,6a,7,9,10-hexahydro-[1,4]oxazino[3,4-h]pteridin-2-yl)-4-fluorophenyl)methanol] | 50.1 nM
CCc1nnc(CN2C[C@@H]3COCCN3c3nc(-n4ccc5cnccc54)ncc32)o1 [Example 180, (R)-5-((5-ethyl-1,3,4-oxadiazol-2-yl)methyl)-2-(1H-pyrrolo[3,2-c]pyridin-1-yl)-5,6,6a,7,9,10-hexahydro-[1,4]oxazino[3,4-h]pteridine] | 398 nM
c1ccc(N2CC3COCCN3c3nc(-c4cccc5[nH]ccc45)ncc32)cc1 (stereo not shown) [Example 181, 2-(1H-indol-4-yl)-5-phenyl-5,6,6a,7,9,10-hexahydro-[1,4]oxazino[3,4-h]pteridine] | 79.4 nM

Structure (SMILES) | IC50
Cn1cc(CN2C[C@@H]3COCCN3c3nc(-c4cccc5[nH]ccc45)ncc32)cn1 [Example 182, (R)-2-(1H-indol-4-yl)-5-((1-methyl-1H-pyrazol-4-yl)methyl)-5,6,6a,7,9,10-hexahydro-[1,4]oxazino[3,4-h]pteridine] | 15.8 nM
CCc1cccc(N2C[C@@H]3COCCN3c3nc(-c4cccc5[nH]ccc45)ncc32)c1 [Example 183, (R)-5-(3-ethylphenyl)-2-(1H-indol-4-yl)-5,6,6a,7,9,10-hexahydro-[1,4]oxazino[3,4-h]pteridine] | 398 nM
CCc1ccccc1N1C[C@@H]2COCCN2c2nc(-c3cccc4[nH]ccc34)ncc21 [Example 184, (R)-5-(2-ethyl-phenyl)-2-(1H-indol-4-yl)-5,6,6a,7,9,10-hexahydro-[1,4]oxazino[3,4-h]pteridine] | 398 nM
c1cc(-c2ncc3c(n2)N2CCOC[C@H]2CN3Cc2cnco2)c2cc[nH]c2c1 [Example 185, (R)-2-(1H-indol-4-yl)-5-(oxazol-5-ylmethyl)-5,6,6a,7,9,10-hexahydro-[1,4]oxazino[3,4-h]pteridine] | 10 nM
N#Cc1ccccc1N1C[C@@H]2COCCN2c2nc(-c3cccc4[nH]ccc34)ncc21 [Example 186, (R)-2-(2-(1H-indol-4-yl)-6a,7,9,10-tetrahydro-[1,4]oxazino[3,4-h]pteridin-5(6H)-yl)benzonitrile] | 50.1 nM
Cc1ccccc1N1C[C@@H]2COCCN2c2nc(-c3cccc4[nH]ccc34)ncc21 [Example 187, (R)-2-(1H-indol-4-yl)-5-(o-tolyl)-5,6,6a,7,9,10-hexahydro-[1,4]oxazino[3,4-h]pteridine] | 126 nM
CCc1cc(CN2C[C@@H]3COCCN3c3nc(-c4cccc5[nH]ccc45)ncc32)on1 [Example 188, (R)-5-((3-ethylisoxazol-5-yl)methyl)-2-(1H-indol-4-yl)-5,6,6a,7,9,10-hexahydro-[1,4]oxazino[3,4-h]pteridine] | 39.8 nM
OC1CCC(N2C[C@@H]3COCCN3c3nc(-c4cccc5[nH]ccc45)ncc32)CC1 (stereo partly drawn) [Example 189, (R)-4-(2-(1H-indol-4-yl)-6a,7,9,10-tetrahydro-[1,4]oxazino[3,4-h]pteridin-5(6H)-yl)cyclohexanol] | 7.94 nM
CCOC(=O)c1cccc(N2C[C@@H]3COCCN3c3nc(-c4cccc5[nH]ccc45)ncc32)c1 [Example 190, (R)-ethyl 3-(2-(1H-indol-4-yl)-6a,7,9,10-tetrahydro-[1,4]oxazino[3,4-h]pteridin-5(6H)-yl)benzoate] | 25.1 nM
CS(=O)(=O)c1cccc(N2C[C@@H]3COCCN3c3nc(-c4cccc5[nH]ccc45)ncc32)c1 [Example 191, (R)-2-(1H-indol-4-yl)-5-(3-(methylsulfonyl)phenyl)-5,6,6a,7,9,10-hexahydro-[1,4]oxazino[3,4-h]pteridine] | 3.16 nM
c1cc(-c2ncc3c(n2)N2CCOC[C@H]2CN3C2CCOCC2)c2cc[nH]c2c1 [Example 192, (R)-2-(1H-indol-4-yl)-5-(tetrahydro-2H-pyran-4-yl)-5,6,6a,7,9,10-hexahydro-[1,4]oxazino[3,4-h]pteridine] | 3.16 nM
c1cc(-c2ncc3c(n2)N2CCOC[C@H]2CN3c2cccc3[nH]ccc23)c2cc[nH]c2c1 [Example 193, (R)-2,5-di(1H-indol-4-yl)-5,6,6a,7,9,10-hexahydro-[1,4]oxazino[3,4-h]pteridine] | 794 nM
c1cc(-c2ncc3c(n2)N2CCOC[C@H]2CN3CCC2OCCO2)c2cc[nH]c2c1 [Example 194, (R)-5-(2-(1,3-dioxolan-2-yl)ethyl)-2-(1H-indol-4-yl)-5,6,6a,7,9,10-hexahydro-[1,4]oxazino[3,4-h]pteridine] | 3.16 nM
COC(=O)CCCN1C[C@@H]2COCCN2c2nc(-c3cccc4[nH]ccc34)ncc21 [Example 195, (R)-methyl 4-(2-(1H-indol-4-yl)-6a,7,9,10-tetrahydro-[1,4]oxazino[3,4-h]pteridin-5(6H)-yl)butanoate] | 3.16 nM
O=C(O)CCCN1C[C@@H]2COCCN2c2nc(-c3cccc4[nH]ccc34)ncc21 [Example 196, (R)-4-(2-(1H-indol-4-yl)-6a,7,9,10-tetrahydro-[1,4]oxazino[3,4-h]pteridin-5(6H)-yl)butanoic acid] | 6.31 nM
N[C@H]1CC[C@H](CN2C[C@@H]3COCCN3c3nc(-c4cccc5[nH]ccc45)ncc32)CC1 [Example 197] | 3160 nM
CCOC(=O)c1cncc(N2C[C@@H]3COCCN3c3nc(-c4cccc5[nH]ccc45)ncc32)c1 [Example 198, (R)-ethyl 5-(2-(1H-indol-4-yl)-6a,7,9,10-tetrahydro-[1,4]oxazino[3,4-h]pteridin-5(6H)-yl)nicotinate] | 15.8 nM
